# Reference: patent US9833436B2, “Method of preparing drug agglomerate” (PharmaDax Inc., priority 2014, dated 2017)
# Where a name gives a salt, the structure may show the parent alone. Read-outs that look alike come from different tables or passages of the source.
# Experiments:
# [1] = pH 6.8 PBS 500 mL, basket 100 rpm, 37° C.
# [2] = Compatibility with HPMCP HP-50 by residual content (% assay) after storage; assay type: physicochemical
# Protocol: In comparison, duloxetine crude materials and granulated duloxetine particles having similar size obtained by the conventional wet granulation were also assayed. The granulated duloxetine particles were granulated by the same second solvent (e.g., acetonitrile), which was used in the process of spherical agglomeration, and dried at 50° C. until LOD<1%. An enteric material, hypromellose phthalate (HPMCP) HP-50, which is known to cause degradation of duloxetine, was used in this test.
# FIGS. 4A-D are electronic microscopic diagram of duloxetine in different states. […] In Table 7, “C” refers to crude material. “SA” refers to spherical agglomerates. “G” refers to granulated duloxetine particles.
structure (smiles),measurement,setting,value
"CNCC[C@H](Oc1cccc2ccccc12)c1cccs1 [Crude, duloxetine hydrochloride]",Duloxetine Release (%),[1]; 3 min,89.3%
same,Duloxetine Release (%),[1]; 6 min,95.8%
same,Duloxetine Release (%),[1]; 9 min,97.5%
same,Duloxetine Release (%),[1]; 12 min,98.4%
same,Duloxetine Release (%),[1]; 15 min,98.8%
same,Duloxetine Release (%),[1]; 18 min,99.1%
same,Duloxetine Release (%),[1]; 21 min,99.4%
same,Duloxetine Release (%),[1]; 30 min,99.9%
same,Duloxetine Release (%),[1]; 60 min,100.9%
same,% Assay (residual content),[2],98.39%
